In article PMC6010102, “N-thioalkylcarbazoles derivatives as new anti-proliferative agents: synthesis, characterisation and molecular mechanism evaluation” (Journal of Enzyme Inhibition and Medicinal Chemistry, 2018):

Assays:
[1] = tested on: MDA-MB-231 human breast cancer cells; experiment: MTT cell viability, MDA-MB-231; format: cell-based; conditions: 72 h exposure, mean ± SD, read-out: Antiproliferative activity IC50, MDA-MB-231
From the text: (§1) The six cell lines used in this work were purchased from American Type Culture Collection (ATCC, Manassas, VA). MCF-7 human breast cancer cells, oestrogen receptor (ER) positives, were maintained in Dulbecco’s Modified Eagle’s Medium/Nutrient Mixture F-12 Ham (DMEM/F12), supplemented with 5% foetal bovine serum (FBS) and 100 U/ml penicillin/streptomycin, as previously described. MDA-MB-231, human breast cancer cells, oestrogen receptor (ER) negative, were maintained in Dulbecco’s Modified Eagle’s Medium/Nutrient Mixture F-12 Ham (DMEM/F12), supplemented with 5% Newborn Calf Serum (NCS) and 100 U/ml penicillin/streptomycin. HeLa human epithelial cervix carcinoma cells, oestrogen receptor (ER) negative, and ISHIKAWA human endometrial adenocarcinoma cell, oestrogen receptor positive, were maintained in minimum essential medium (MEM), supplemented with 10% FBS, 100 U/ml penicillin/streptomycin and 1% non-essential amino acid. 3T3-L1 cells line of murine fibroblasts of embryonic type, were maintained in DMEM, supplemented with 10% NCS and 100 U/ml penicillin/streptomycin. MCF-10A human mammary epithelial cells were cultured in DMEM/F12 medium, supplemented with 5% horse serum (HS) (Eurobio, Les Ullis, Cedex, France), 100 U/ml penicillin/streptomycin, […] hydrocortisone, 20 ng/ml hEGF (human epidermal growth factor), 10 μg/ml insulin and […] cholera enterotoxin (Sigma-Aldrich, Milano, Italy). Cells were maintained at 37 °C in a humidified atmosphere of 95% air and 5% CO2 and periodically screened for contamination.
(§2) MDA-MB-231, MCF-7, HeLa and ISHIKAWA cells were grown in complete medium and, before being treated, they were serum deprived for 24 h, to allow cell cycle synchronisation. Then cells were grown in phenol red-free medium supplemented with 1% DCC (destran-coated charcoal treated) FBS, then treated with increasing concentrations (0.1, 1, 10, 20, 40, 100 µM) of each compound for 72 h. Compounds were dissolved in dimethylsulphoxide (DMSO) (Sigma, St. Louis, MO) and diluted in each cell medium. Untreated cells, used as a control, were added with DMSO alone (final concentration 0.1%). Cell viability was assessed using the 3-[4,5-dimethylthiazol-2-yl]-2,5-diphenyltetrazolium bromide reagent (MTT), according to the protocol from manufacturer (Sigma-Aldrich, Milan, Italy), as previously described[37] ^, [38]. For each sample, the mean absorbance, measured at 570 nm, was expressed as a percentage of the control and plotted versus drug concentration to determine for each cell line the IC50 values (namely, drugs concentrations able to reduce cell viability of 50% with respect to the control), using GraphPad Prism 5 Software (GraphPad Inc., San Diego, CA)[39]. Each experiment was carried out in quadruplicate. Standard deviations (SD) were shown.

[2] = tested on: HeLa human epithelial cervix carcinoma cells; experiment: MTT cell viability, HeLa; format: cell-based; conditions: 72 h exposure, mean ± SD, read-out: Antiproliferative activity IC50, HeLa
From the text: as §1, §2

[3] = tested on: 3T3-L1 murine fibroblasts; experiment: MTT cell viability, 3T3-L1; format: cell-based; conditions: Mus musculus, non-tumoural cells, 72 h exposure, mean ± SD, read-out: Antiproliferative activity IC50, 3T3-L1
From the text: as §1, §2

hTopoII = hTopoII (Homo sapiens, UniProt P11388); experiment: Human topoisomerase II decatenation assay; format: biochemical; conditions: 10 µM
Experimental: Human topoisomerase II decatenation assay: hTopoII decatenation assays were performed as reported in Iacopetta et al.[8].
Figure 2. hTopoII inhibition assay. kDNA was incubated with human Topoisomerase II in the absence (lane C, vehicle DMSO) or presence of compound 5c (lane 5c) or Ellipticine (lane E) at 10 and 50 µM, respectively. Lane K, kinetoplast DNA (kDNA).

Parp-1 = Parp-1 cleavage immunoblot in HeLa cells; format: cell-based, human; conditions: 10 µM, 24, 48 and 72 h, western blot
Experimental: Cells were serum deprived for 24 h, treated for 24, 48 and 72 h with the compound to be tested. At the end, cells were rinsed twice with ice cold PBS and immediately lysed in lysis buffer (50 mM Tris-HCl, pH 7, 5–8; 150 mM NaCl, 1% Igepal CA-630; 0.1% SDS; 0.5% sodium deoxycholate) containing 1% sodium orthovanadate and 1% phenylmethylsulphonyl fluoride (PMSF). Cell lysates were cleared by centrifugation at 14,000 g for 10 min at 4 °C. Protein concentrations were determined using the Bradford protein assay[40] (Bio-Rad Laboratories, Milan, Italy) according to the directions from the manufacturer. Equal amounts of cell extracts (about 20 µg) were resolved under denaturing conditions by electrophoresis in 10% polyacrylamide gels containing SDS (SDS-PAGE) and transferred to nitrocellulose membranes by electroblotting (GE Healthcare, Piscataway, NJ). […] After incubation with the appropriate secondary antibody (VWR International PBI, MI, Italy) for 1 h at room temperature, the proteins of interest were detected on the membranes by using enhanced chemiluminescence (Amersham ECL Prime Western Blotting Detection Reagent, GE Healthcare, Piscataway, NJ).

caspases 3 and 7 = experiment: Caspase-Glo assay, caspases 3/7; format: cell-based, human; conditions: HeLa cells, concentration equal to IC50, 24 h
Experimental: Caspases-3/7, -8 and -9 activities were measured with the Caspase-Glo Assay, according to the guidelines of manufacturer (Caspase-Glo® 3/7, 8 and 9 Assay Systems, Promega Corporation, Madison, WI) as described in Iacopetta et al.[43].

Cytochrome c = Cytochrome c immunofluorescence in HeLa cells; format: cell-based, human; conditions: concentration equal to IC50, 24 h
Experimental: Cells were grown on glass coverslips in full media, then serum-deprived for 24 h and exposed to compound to test, at the indicated time. Then, they were PBS-washed, fixed with cold methanol (15 min/−20 °C) and washed three times (10 min/room temperature) with cold PBS containing 0.01% TritonX-100. After incubation (30 min/room temperature) with blocking solution (PBS, 2% BSA), they were incubated with primary antibody diluted in blocking solution (4 °C/overnight). The mouse anti-cytochrome c (556433) was purchased from BD Biosciences (Franklin Lakes, NJ) and used at 1:100 dilution. Coverslips were then washed three times with PBS, then fixed cells were incubated with the secondary antibody Alexa Fluor® 568 conjugate goat-anti-mouse (1:500, Thermo Fisher Scientific, Waltham, MA). Nuclei were stained using DAPI (Sigma-Aldrich, Milan, Italy) for 10 min at a concentration of 0.2 µg/mL then washed three times with PBS. Fluorescence was detected using a fluorescence microscope (Leica DM 6000 Leica, Frankfurt am Main, Germany). LASX software was used to acquire and process all images.

Sequence of hTopoII (P11388 whole entry): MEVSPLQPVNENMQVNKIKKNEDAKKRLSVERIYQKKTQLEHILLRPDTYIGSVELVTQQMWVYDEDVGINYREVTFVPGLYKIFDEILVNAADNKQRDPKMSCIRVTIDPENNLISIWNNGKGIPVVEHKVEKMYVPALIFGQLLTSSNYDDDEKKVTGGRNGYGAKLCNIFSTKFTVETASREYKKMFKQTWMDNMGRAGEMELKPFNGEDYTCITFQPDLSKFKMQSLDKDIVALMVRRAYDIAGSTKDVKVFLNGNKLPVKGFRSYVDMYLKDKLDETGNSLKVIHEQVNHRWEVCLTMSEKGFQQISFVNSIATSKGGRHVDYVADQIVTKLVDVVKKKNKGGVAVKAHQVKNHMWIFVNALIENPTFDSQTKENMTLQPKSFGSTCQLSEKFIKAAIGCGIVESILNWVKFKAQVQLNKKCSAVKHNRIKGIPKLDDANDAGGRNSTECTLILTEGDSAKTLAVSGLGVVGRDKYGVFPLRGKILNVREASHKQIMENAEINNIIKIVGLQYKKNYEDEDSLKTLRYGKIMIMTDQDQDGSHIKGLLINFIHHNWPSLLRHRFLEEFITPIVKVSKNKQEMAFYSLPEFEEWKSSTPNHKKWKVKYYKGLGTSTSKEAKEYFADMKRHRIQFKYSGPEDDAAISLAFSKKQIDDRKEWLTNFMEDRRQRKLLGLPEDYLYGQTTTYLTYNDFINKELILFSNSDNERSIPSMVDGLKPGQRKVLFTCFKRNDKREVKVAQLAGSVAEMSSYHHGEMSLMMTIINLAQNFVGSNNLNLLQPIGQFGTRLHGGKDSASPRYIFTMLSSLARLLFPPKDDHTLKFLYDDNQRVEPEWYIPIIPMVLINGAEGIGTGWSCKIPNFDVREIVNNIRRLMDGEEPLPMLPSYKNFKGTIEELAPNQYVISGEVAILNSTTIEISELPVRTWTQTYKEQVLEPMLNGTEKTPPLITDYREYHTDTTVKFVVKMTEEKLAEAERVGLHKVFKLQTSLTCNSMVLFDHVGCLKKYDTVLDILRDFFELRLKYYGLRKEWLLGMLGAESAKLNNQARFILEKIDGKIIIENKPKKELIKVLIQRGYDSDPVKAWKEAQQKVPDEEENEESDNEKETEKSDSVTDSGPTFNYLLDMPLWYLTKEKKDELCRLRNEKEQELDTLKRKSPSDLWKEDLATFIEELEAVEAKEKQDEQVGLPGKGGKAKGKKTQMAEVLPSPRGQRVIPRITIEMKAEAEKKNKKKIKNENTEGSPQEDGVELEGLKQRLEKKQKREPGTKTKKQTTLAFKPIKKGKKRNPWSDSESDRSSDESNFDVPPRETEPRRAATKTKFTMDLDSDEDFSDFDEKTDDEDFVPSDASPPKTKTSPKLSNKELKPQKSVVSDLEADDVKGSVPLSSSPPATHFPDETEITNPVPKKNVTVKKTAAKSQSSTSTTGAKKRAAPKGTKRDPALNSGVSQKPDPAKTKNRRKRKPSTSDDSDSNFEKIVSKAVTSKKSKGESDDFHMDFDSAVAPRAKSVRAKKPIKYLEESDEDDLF

- IC50 [1]: 27.2 ± 0.75 µM
- IC50 [2]: 11.3 ± 0.63 µM
- hTopoII inhibition (kDNA decatenation) (hTopoII): able to inhibit hTopoII activity
Structure (SMILES): Cc1ccc(C)c2c1c1cc(Br)ccc1n2CCCCCCCS [5c, 7-(6-Bromo-1,4-dimethyl-9H-carbazol-9-yl)-heptane-1-thiol]
- IC50 [3]: > 100 µM
- Parp-1 cleavage (about 89 KDa form) (Parp-1): presence of the cleaved form of Parp-1
- caspases 3 and 7 activity (caspases 3 and 7): clear increase of caspases 3 and 7 activity
- Cytochrome c localisation (Cytochrome c): determines the release of Cytochrome c from mitochondria to the cytosol
